The text below walks through data of patent publication US5559152A, “Pharmaceutical composition having antiacoholic activity” (priority 1994, dated 1996).

Read-outs that look alike come from different tables or passages of the source.

Data set [1] has as its system stomach secretion in patients suffering chronic gastritis. Briefly: comparative study of pentagastrin and present composition in patients suffering chronic gastritis. Type of data set: in vivo, human. The procedure:
With intragastric pH-metry initial levels of pH in these patients varied from 3.5 to 6.8, and after Noller test these levels increased to alkaline values (8-9) which levels remained the same during the test period (1-1.5 hours).

The test system of data set [2] is stomach secretion in patients suffering chronic gastritis with pentagastrinrefractive achlorhydria. Briefly: stomach secretion in patients with pentagastrinrefractive achlorhydria. Type of data set: in vivo, human. Conditions: stimulated secretion; M ± m.
Experimental: Additionally intrastomach pH-metry was carried out (on an empty stomach and after taking the present composition or comparative preparations) using acidograph with aspiratory pH probe. Before introducing the present composition and comparative preparations and after that pH levels were registered and "alkaline time" was determined using Noller test. Having deciphered pH-gramms, pH levels, "alkaline time" (AT), hydrogen ions secretion rate (HISR), kinetic function of acid formation (KFA) were determined.
The effect of the present composition on stomach secretion in patients of this group has been studied.
Data set [3] deals with stomach secretion in patients suffering chronic gastritis accompanied by stomach and duodenum ulcers. The data set can be described thus: stomach secretion in patients with chronic gastritis accompanied by stomach and duodenum ulcers, pentagastrin after present composition. The data set is classed as in vivo, human.
Experimental: The diagnoses were verified on the basis of all presently used methods for diagnosing gastroenterological diseases. […] Additionally intrastomach pH-metry was carried out (on an empty stomach and after taking the present composition or comparative preparations) using acidograph with aspiratory pH probe. Before introducing the present composition and comparative preparations and after that pH levels were registered and "alkaline time" was determined using Noller test. Having deciphered pH-gramms, pH levels, "alkaline time" (AT), hydrogen ions secretion rate (HISR), kinetic function of acid formation (KFA) were determined.
The next data set relates to patients. The conditions noted are these: background; cited from earlier work.
Data set [4] has as its system stomach mucosa. The procedure: The diagnoses were verified on the basis of all presently used methods for diagnosing gastroenterological diseases. […] Pentagastrin in the dosage of 6 μg/kg of body weight and histamine in the dosage of 0.1 ml of 0.1% solution were used as comparative preparations. […] Having deciphered pH-gramms, pH levels, "alkaline time" (AT), hydrogen ions secretion rate (HISR), kinetic function of acid formation (KFA) were determined.
For this purpose the characteristics of stomach acid-forming function were studied in these volunteers after administering said preparations in different sequences.

The test system of data set [5] is rats subjected to gamma-irradiation. Conditions: rodents; cited from earlier work.
Data set [6] relates to rats (acute alcohol intoxication).
Data set [7] relates to stomach mucosa. The conditions noted are these: 3.6 mg/kg, dogs.
For the next data set, the system named is succinate dehydrogenase. The conditions noted are these: mice; 4 mg/kg intrastomach, 40 min; M ± m.
The subject of data set [8] is stomach mucosa. The conditions noted are these: mice, 3.5 mg/kg intrastomach, 35-45 min; M ± m. The protocol: (§1) Stomachs were washed with water through cardiac opening and the washing from the antral opening were collected. Stomach contents (5 ml of washings) were used to determine pH, pepsin and total protein content. Stomach was refilled with water, frozen in cryostate and serial section having the thickness of 6-8 microns were made beginning from low curvature and parallel to stomach longer axis. In the sections of stomach bottom and body having a total weight of 50-90 mg, protein and nucleic acids content was determined.

In data set [9] the test system is stomach and liver tissues. The conditions noted are these: in 100 mg of tissue; 3.5 mg/kg; M ± m. The procedure: as §1
The test system of data set [10] is rats subjected to gamma-irradiation. The conditions noted are these: 16 Gy, 100 mg/kg i.p. 30 min before irradiation.
Experimental: This preparation was given i.p. to a group of 10 animals 30 min. before the irradiation in the dosage of 100 mg/kg of animal weight.
[11] abbreviates: stimulated secretion, pentagastrin a day after present composition, M ± m.
[12] abbreviates: histamine stimulated secretion, an hour after present composition.
Where [13] appears, read: secretion in 1 h after histamine injection.
The mark [14] stands for this setting: secretion in interval between stimulators (after histamine).

Regarding `CSCC[C@H](NC(=O)[C@H](Cc1c[nH]c2ccccc12)NC(=O)CCNC(=O)OC(C)(C)C)C(=O)N[C@@H](CC(=O)O)C(=O)N[C@@H](Cc1ccccc1)C(N)=O` [pentagastrin], the “acidity, pepsin content, hydrochloric acid debit and pepsin debit” value in [1] (12 refractory patients) is given as “remained at zero levels”. The “intragastric pH after stimulation” value in data set [1] (12 refractory patients, from 6.51±1.06, p<0.25) came out at 4.69±0.92. In [1] (12 refractory patients, p<0.5), the “AT reduction in Noller test” value was “did not cause AT reduction”. The patients refractory in [1] (chronic gastritis, pentagastrin 6 μg/kg) is given as 12 of 50. For the same compound, the “effect on stomach secretion, comparison of the both preparations” value in [1] (patients suffering chronic gastritis, p<0.5) is given as “nearly the same effect on stomach secretion”. For the same compound, in data set [2], the Acid secretion was determined as 15.25 ± 0.86%, the Acidity amounted to 0 ± 0 mmol per liter, the Hydrochloric acid debit is 0 ± 0 mmol per hour and the Pepsin content is listed as 0 ± 0 mg per ml. In data set [2], this compound had a Pepsin debit of 0 ± 0 mg per hour and a Stomach contents volume of 0.067 ± 0.15 liter per hour. Besides, in [3] (chronic gastritis accompanying stomach and duodenum ulcers, p<0.5), the “effect on stomach secretion, comparison of the both preparations” value was “nearly the same effect on stomach secretion”. Further, the “effects when present composition administered in a week after pentagastrin” value in data set [3] (p<0.5) is listed as “nearly identical”. In addition, the Pepsin debit in data set [3] (stimulated secretion, pentagastrin a day after present composition, M ±) is recorded as 5.0 ± 1.05 mg/h. In [3] (setting [11]), the Hydrochloric acid debit is 17 ± 1.44 mmol/h, the Secretion volume amounted to 178 ± 12.7 mL and the pH came to 1.4 ± 0.14.

For the compound `NCCc1c[nH]cn1` [histamine], the “complications / side effects” value in the data set on patients is listed as “nettle-rash,larynx edema, anaphylactic shock”. Besides, in the data set on stomach mucosa [4] (Tables 23 and 24), the “effects on stomach acid-forming function (duration and intensity), present composition versus histamine” value is listed as “identical effects on stomach acid-forming function”. For the same compound, the Free hydrochloric acid in the data set on stomach mucosa [4] (histamine secretion, M ± m) is 6.5 ± 0.27 meq./liter; in the data set on stomach mucosa [4] (setting [12]) it was 3.90 ± 0.11 meq/liter; in the data set on stomach mucosa [4] (setting [13]) it was 6.92 ± 0.73 meq/liter; with stomach mucosa [4] (setting [14]), 15.3 ± 1.4 meq./liter. Further, the Total hydrochloric acid with stomach mucosa [4] (histamine secretion, M ± m) amounted to 8.00 ± 0.29 meq./liter; with stomach mucosa [4] (setting [12]) it was 4.70 ± 0.12 meq/liter; with stomach mucosa [4] (setting [13]) it was 4.6 ± 0.5 meq/liter; in the data set on stomach mucosa [4] (setting [14]), 15.8 ± 1.6 meq./liter.

In the case of `O=C(O)CCC(=O)O` [succinic acid], the “effective dosage (radioprotective)” value in [5] is 2.7 g/kg of animal weight. In addition, the “Duration of on-side position, single ethanol injection” value in data set [6] (1.85 mg/kg intrastomach 40 min before 25% ethanol 3.5 g/kg i.p., M ± m) was 1.6 ± 1.1 min. The “Duration of on-side position, repeated ethanol injection” value in data set [6] (1.85 mg/kg intrastomach, second 25% ethanol 3 g/kg, 60 min after leaving on-side position, M ± m) is 24.9 ± 3.8 min. The “alcoprotective detoxifying activity compared” value in data set [6] (after a single ethanol injection, versus claimed composition) is recorded as “higher alcoprotective detoxifying activity than the claimed composition”. The “time after introduction at which effect on stomach secretion abated” value with stomach mucosa [7] was determined as 20 min. In the data set with stomach mucosa [7] (versus present composition), the “stimulation of stomach glands and fermentative activity” value is “less expressed results”. For the same compound, in the data set on succinate dehydrogenase, the “succinate dehydrogenase activity in liver” value is given as 21.8 ± 0.6 nanomoles of formazan of p-nit, the “succinate dehydrogenase activity in stomach” value was 26.3 ± 3.0 nanomoles of formazan of p-nit and the “succinate dehydrogenase activity of lymphocytes” value is given as 643. ± 5.1 granules of formazan of p-nitr. Also, in the data set on stomach mucosa [8], the “Pepsin amount in stomach contents” value came out at 18.7 ± 2.1 µg, the “Total protein amount in stomach contents” value came out at 3.9 ± 0.9 mg and the “pH of stomach contents” value turned out to be 5.7 ± 0.2. In [9], the “Liver DNA content” value amounted to 15.6 ± 2.7 µg, the “Liver RNA content” value is 74.5 ± 4.4 µg, the Liver protein content turned out to be 14.4 ± 1.2 mg and the “Stomach DNA content” value was 13.1 ± 1.1 µg. In addition, in [9], the “Stomach RNA content” value stood at 70.0 ± 4.7 µg and the Stomach protein content was found to be 12.1 ± 0.9 mg.

`N[C@@H](CCC(=O)N[C@@H](CS)C(=O)NCC(=O)O)C(=O)O` [glutathione]: in [10], the mortality (usually the share of the test organisms that died) turned out to be 100%. Moreover, the life-time of rats in data set [10] (control 6.9 days) was 10.2 days.
